The record followed here is publication PMC8213057, “Targeting ALK2: An Open Science Approach to Developing Therapeutics for the Treatment of Diffuse Intrinsic Pontine Glioma” (Journal of Medicinal Chemistry, 2020).

One test has as its target T1, ZAP70 (Homo sapiens, UniProt P43403).
T1 sequence (P43403 1-619): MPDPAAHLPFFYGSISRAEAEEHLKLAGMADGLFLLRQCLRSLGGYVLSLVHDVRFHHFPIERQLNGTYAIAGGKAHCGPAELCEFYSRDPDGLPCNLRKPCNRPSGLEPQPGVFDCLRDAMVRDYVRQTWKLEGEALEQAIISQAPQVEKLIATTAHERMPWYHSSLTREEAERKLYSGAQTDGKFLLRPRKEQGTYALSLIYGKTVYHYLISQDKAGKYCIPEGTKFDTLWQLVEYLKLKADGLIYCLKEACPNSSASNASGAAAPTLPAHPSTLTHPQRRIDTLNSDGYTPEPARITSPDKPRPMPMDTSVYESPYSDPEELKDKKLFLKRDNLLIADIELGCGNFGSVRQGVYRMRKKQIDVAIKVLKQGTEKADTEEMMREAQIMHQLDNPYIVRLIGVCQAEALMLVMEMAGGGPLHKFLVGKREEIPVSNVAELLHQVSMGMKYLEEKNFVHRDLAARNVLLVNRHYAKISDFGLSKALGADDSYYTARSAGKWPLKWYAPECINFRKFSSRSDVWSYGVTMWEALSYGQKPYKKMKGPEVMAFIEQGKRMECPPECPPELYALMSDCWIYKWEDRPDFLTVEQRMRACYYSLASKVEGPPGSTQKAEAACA
Nature of the test: biochemical. Conditions: read-out: % enzyme activity, 1 μM; Run 1, Run 2.

The target in another test is NIM1 (Homo sapiens, UniProt Q8IY84). Conditions: 1 μM; Run 1, Run 2.
A further test has as its target LYN (Homo sapiens, UniProt P07948). The settings on record: 1 μM; Run 1, Run 2.
The target of a further test is T2, TNK1 (Homo sapiens, UniProt Q13470).
T2 sequence (Q13470 1-666): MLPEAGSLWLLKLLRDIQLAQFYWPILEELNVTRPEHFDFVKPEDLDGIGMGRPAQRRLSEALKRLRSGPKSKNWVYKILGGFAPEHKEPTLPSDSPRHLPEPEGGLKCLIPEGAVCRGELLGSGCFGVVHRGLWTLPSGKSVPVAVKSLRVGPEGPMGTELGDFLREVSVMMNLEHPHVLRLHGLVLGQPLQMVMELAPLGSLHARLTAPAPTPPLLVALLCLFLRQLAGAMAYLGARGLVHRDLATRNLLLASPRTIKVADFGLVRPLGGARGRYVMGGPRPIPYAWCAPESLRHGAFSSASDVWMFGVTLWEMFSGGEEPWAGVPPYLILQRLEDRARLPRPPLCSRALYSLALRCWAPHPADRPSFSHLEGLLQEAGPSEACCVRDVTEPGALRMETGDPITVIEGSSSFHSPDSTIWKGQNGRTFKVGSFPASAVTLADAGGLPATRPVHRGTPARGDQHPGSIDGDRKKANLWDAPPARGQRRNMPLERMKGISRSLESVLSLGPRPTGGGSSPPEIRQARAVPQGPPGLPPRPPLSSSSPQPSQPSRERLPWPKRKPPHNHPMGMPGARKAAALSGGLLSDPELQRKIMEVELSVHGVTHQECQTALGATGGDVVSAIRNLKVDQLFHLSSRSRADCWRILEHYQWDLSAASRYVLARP
Conditions: 1 μM; Run 1, Run 2.

The target in another test is T3, GRK7 (Homo sapiens, UniProt Q8WTQ7).
T3 sequence (Q8WTQ7 1-553): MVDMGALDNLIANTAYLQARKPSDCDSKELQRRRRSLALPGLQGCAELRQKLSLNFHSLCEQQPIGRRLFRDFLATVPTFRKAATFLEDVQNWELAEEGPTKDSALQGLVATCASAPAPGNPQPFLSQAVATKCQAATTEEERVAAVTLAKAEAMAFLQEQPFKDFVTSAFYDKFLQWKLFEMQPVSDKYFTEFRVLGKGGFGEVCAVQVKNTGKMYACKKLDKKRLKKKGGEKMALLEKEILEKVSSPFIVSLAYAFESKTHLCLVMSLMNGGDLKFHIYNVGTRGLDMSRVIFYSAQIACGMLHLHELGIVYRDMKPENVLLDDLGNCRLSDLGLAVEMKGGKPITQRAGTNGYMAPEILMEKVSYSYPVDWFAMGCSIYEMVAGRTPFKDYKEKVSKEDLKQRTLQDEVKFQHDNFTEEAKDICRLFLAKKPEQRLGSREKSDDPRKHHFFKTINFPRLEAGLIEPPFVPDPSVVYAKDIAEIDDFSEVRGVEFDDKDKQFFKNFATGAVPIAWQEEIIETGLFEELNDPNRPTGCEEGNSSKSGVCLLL
Kind of test: biochemical. Conditions: read-out: % enzyme activity, 1 μM; Run 1, Run 2.

The next test concerns the target T4, PKCzeta (Homo sapiens, UniProt Q05513).
T4 sequence (Q05513 1-592): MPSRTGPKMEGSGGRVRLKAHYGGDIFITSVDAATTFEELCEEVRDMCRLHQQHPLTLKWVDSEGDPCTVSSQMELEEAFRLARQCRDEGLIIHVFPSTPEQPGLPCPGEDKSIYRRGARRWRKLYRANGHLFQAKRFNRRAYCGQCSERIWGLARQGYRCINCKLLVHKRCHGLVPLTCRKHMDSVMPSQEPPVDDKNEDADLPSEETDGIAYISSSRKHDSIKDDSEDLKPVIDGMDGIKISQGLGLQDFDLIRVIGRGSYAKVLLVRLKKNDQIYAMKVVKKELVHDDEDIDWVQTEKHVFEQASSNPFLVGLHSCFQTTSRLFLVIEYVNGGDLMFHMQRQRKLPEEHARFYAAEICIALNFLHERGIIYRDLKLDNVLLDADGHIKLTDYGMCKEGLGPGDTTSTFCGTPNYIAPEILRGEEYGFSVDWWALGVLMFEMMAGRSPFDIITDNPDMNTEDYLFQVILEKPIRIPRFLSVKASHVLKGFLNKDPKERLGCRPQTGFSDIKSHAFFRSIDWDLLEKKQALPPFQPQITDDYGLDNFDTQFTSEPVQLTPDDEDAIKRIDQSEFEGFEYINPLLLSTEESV
Kind of test: biochemical. The settings on record: read-out: % enzyme activity, 1 μM; Run 1, Run 2.

A further test concerns the target T5, CK1a1L (Homo sapiens, UniProt Q8N752).
T5 sequence (Q8N752 1-337): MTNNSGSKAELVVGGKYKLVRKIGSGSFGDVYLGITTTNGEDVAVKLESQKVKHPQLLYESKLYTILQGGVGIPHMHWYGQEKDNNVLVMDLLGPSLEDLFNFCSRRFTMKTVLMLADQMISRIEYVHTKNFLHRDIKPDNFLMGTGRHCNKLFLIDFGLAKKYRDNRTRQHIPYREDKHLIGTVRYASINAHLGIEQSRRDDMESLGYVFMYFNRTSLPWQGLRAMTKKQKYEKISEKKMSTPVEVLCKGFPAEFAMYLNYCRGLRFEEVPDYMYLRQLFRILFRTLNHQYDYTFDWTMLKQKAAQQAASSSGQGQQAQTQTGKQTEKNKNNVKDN
Kind of test: biochemical. The settings on record: read-out: % enzyme activity, 1 μM; Run 1, Run 2.

LYN, sequence (P07948 whole entry): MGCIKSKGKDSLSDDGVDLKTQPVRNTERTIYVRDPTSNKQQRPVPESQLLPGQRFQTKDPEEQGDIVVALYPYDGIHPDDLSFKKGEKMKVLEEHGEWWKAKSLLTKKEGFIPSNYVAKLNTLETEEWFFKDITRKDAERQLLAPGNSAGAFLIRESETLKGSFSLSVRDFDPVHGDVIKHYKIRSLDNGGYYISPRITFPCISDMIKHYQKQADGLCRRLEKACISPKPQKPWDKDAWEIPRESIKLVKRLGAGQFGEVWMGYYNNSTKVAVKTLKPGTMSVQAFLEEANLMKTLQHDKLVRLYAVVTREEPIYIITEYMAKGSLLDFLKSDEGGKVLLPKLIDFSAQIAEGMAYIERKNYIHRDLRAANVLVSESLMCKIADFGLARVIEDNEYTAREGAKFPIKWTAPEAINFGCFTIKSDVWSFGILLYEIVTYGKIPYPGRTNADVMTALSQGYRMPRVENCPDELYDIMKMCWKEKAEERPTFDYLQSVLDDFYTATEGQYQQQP
NIM1, sequence (Q8IY84 whole entry): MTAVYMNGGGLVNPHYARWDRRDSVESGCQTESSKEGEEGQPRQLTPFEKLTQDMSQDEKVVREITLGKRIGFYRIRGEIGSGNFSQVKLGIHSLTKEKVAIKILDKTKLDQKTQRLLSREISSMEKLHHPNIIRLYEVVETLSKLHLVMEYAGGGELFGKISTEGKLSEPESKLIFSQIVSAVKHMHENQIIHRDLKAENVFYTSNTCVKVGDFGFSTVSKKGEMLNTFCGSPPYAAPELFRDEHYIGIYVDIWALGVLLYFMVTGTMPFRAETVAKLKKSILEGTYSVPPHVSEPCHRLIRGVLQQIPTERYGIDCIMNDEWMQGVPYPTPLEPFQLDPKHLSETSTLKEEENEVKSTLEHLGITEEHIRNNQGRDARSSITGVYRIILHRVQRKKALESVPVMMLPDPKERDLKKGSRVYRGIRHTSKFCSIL

Take `COc1cc(-c2cncc(-c3ccc(N4C[C@@H](C)N(C)[C@@H](C)C4)cc3)c2C)cc(F)c1C(N)=O` [Compound 26c, 2-Fluoro-6-methoxy-4-(4-methyl-5-(4-((3R,5S)-3,4,5-trimethylpiperazin-1-yl)phenyl)pyridin-3-yl)benzamide]: the remaining activity at 1 µM on ZAP70 is 98.7%; on GRK7, 91.8%; on PKCzeta it was 92.5%; at CK1a1L, 99.4%. The “% enzyme activity” value at NIM1 is 97.81%; on LYN, 88.67%; at TNK1, 98.22%.

For `COc1cc(-c2cncc(-c3ccc(N4CCN(C)CC4)cc3)c2C)cc(F)c1C(N)=O` [Compound 26a, 2-Fluoro-6-methoxy-4-(4-methyl-5-(4-(4-methylpiperazin-1-yl)phenyl)pyridin-3-yl)benzamide], the remaining activity at 1 µM turned out to be 96.2% at ZAP70, 95.1% on GRK7, 91.2% at PKCzeta and 98.4% on CK1a1L. The “% enzyme activity” value turned out to be 95.18% at NIM1, 79.23% at LYN and 99.53% on TNK1.
